From patent US20110306606A1, “NOVEL 2,6-SUBSTITUTED-3-NITROPYRIDINE DERIVATIVE, METHOD FOR PREPARING SAME, AND PHARMACEUTICAL COMPOSITION INCLUDING SAME” (priority 2008, published 2011)

test system: Osteoblasts (Calvarial cells); conditions: ICR, mouse, 72 h, 1 μM
Description: For the preparation of osteoblasts (Calvarial cells), the calvaria were aseptically dissected from 1 to 2-day-old neonatal ICR mice and subjected to continuous reaction with a 0.2% collagenase solution to separate osteoblasts. The cell-suspended supernatant was centrifuged to recover osteoblasts which were grown to full confluence in an α-MEM supplemented with 10% FBS and then diluted to a desired cell density for use in the experiment.
Cytotoxicity of the compounds of the present invention was evaluated by carrying out the experiment described below.
The vehicle control group was established to contain 0.2% DMSO. 100 μL/well of the diluted drugs were dispensed into 96-well plates to which osteoblasts (calvarial cells) prepared in Experimental Example 1 were then added at a density of 1.0×10^4 cells/100 μL/well. Here, the final compound concentration in the cell culture was 1 μM, and the vehicle control group contained 0.1% DMSO. The cells were cultured in a 5% CO2 inhibitor at 37° for 72 hours. 25 μL of 3-(4,5-dimethyl-2-thiazolyl)-2,5-diphenyl-2H-tetrazolium bromide (MTT) dissolved in PBS (2 mg/mL) was added to each cell culture 4 hours before the end of culture. After completion of the reaction, the plates were centrifuged, the media were discarded, and 100 μL of formazan was added and dissolved in dimethyl sulfoxide (DMSO). Finally, the absorbance of the developed plates was measured at 540 nm. The cell viability was expressed as % concentration in comparison with the vehicle control group.

Compared with CNc1ccc([N+](=O)[O-])c(Nc2ccc(C)cc2)n1 [Compound 1, 2-(4-methylphenylamino)-6-(methylamino)-3-nitropyridine], Cc1ccc(Nc2nc(NC(C)C)ccc2[N+](=O)[O-])cc1 [Compound 2, 2-(4-methylphenylamino)-6-(isopropylamino)-3-nitropyridine] is lower in “Cell viability (%) Calvarial cell” value: 106% for the first, 104% for the second.

Compared with Cc1ccc(Nc2nc(NCC(C)C)ccc2[N+](=O)[O-])cc1 [Compound 3, 2-(4-methylphenylamino)-6-(isobutylamino)-3-nitropyridine], COc1ccc(Nc2nc(NCC(C)C)ccc2[N+](=O)[O-])cc1 [Compound 17, 2-(4-methoxyphenylamino)-6-(isobutylamino)-3-nitropyridine] is lower in “Cell viability (%) Calvarial cell” value: 102% for the first, 96% for the second.

First: Cc1ccc(Nc2nc(N3CCC(O)CC3)ccc2[N+](=O)[O-])cc1 [Compound 5, 2-(4-methylphenylamino)-6-(4-hydroxypiperidino)-3-nitropyridine]
Second: Nc1ccc(Nc2nc(N3CCC(O)CC3)ccc2[N+](=O)[O-])cc1 [Compound 61, 2-[4-(amino)phenylamino]-6-(4-hydroxypiperidino)-3-nitropyridine]
The “Cell viability (%) Calvarial cell” value of the first is lower: 96% for the first, 102% for the second.

Compared with Cc1ccc(Nc2nc(N3CCN(C)CC3)ccc2[N+](=O)[O-])cc1 [Compound 11, 2-(4-methylphenylamino)-6-(4-methylpiperazin-1-yl)-3-nitropyridine], CN1CCN(c2ccc([N+](=O)[O-])c(Nc3ccc(N)cc3)n2)CC1 [Compound 63, 2-[4-(amino)phenylamino]-6-(4-methylpiperazin-1-yl)-3-nitropyridine] is higher in “Cell viability (%) Calvarial cell” value: 103% for the first, 104% for the second.

First: CNc1ccc([N+](=O)[O-])c(Nc2ccc(OC)cc2)n1 [Compound 15, 2-(4-methoxyphenylamino)-6-(methylamino)-3-nitropyridine]
Second: COc1ccc(Nc2nc(NC(C)(C)C)ccc2[N+](=O)[O-])cc1 [Compound 23, 2-(4-methoxyphenylamino)-6-(t-butylamino)-3-nitropyridine]
The “Cell viability (%) Calvarial cell” value of the first is higher: 100% for the first, 90% for the second.

First: COc1ccc(Nc2nc(N3CCC(O)CC3)ccc2[N+](=O)[O-])cc1 [Compound 19, 2-(4-methoxyphenylamino)-6-(4-hydroxypiperidino)-3-nitropyridine]
Second: CC(C)(C)c1ccc(Nc2nc(N3CCC(O)CC3)ccc2[N+](=O)[O-])cc1 [Compound 34, 2-[4-(t-butyl)phenylamino]-6-(4-hydroxypiperidino)-3-nitropyridine]
The “Cell viability (%) Calvarial cell” value of the first is lower: 94% for the first, 97% for the second.

Compared with COc1ccc(Nc2nc(N3CCN(C)CC3)ccc2[N+](=O)[O-])cc1 [Compound 26, 2-(4-methoxyphenylamino)-6-(4-methylpiperazin-1-yl)-3-nitropyridine], CN1CCN(c2ccc([N+](=O)[O-])c(Nc3ccc(C(C)(C)C)cc3)n2)CC1 [Compound 41, 2-[4-(t-butyl)phenylamino]-6-(4-methylpiperazin-1-yl)-3-nitropyridine] is lower in “Cell viability (%) Calvarial cell” value: 90% for the first, 85% for the second.

Compared with COc1ccc(Nc2nc(N3CCNCC3)ccc2[N+](=O)[O-])cc1 [Compound 27, 2-(4-methoxyphenylamino)-6-(piperazin-1-yl)-3-nitropyridine], Nc1ccc(Nc2nc(N3CCNCC3)ccc2[N+](=O)[O-])cc1 [Compound 62, 2-[4-(amino)phenylamino]-6-(piperazin-1-yl)-3-nitropyridine] is higher in “Cell viability (%) Calvarial cell” value: 97% for the first, 103% for the second.

Going from COc1ccc(Nc2nc(N3CCOCC3)ccc2[N+](=O)[O-])cc1 [Compound 29, 2-(4-methoxyphenylamino)-6-morpholino-3-nitropyridine] to CC(C)(C)c1ccc(Nc2nc(N3CCOCC3)ccc2[N+](=O)[O-])cc1 [Compound 44, 2-[4-(t-butyl)phenylamino]-6-morpholino-3-nitropyridine], the “Cell viability (%) Calvarial cell” value rises from 93% to 101%.

Compared with CNc1ccc([N+](=O)[O-])c(Nc2ccc(C(C)(C)C)cc2)n1 [Compound 30, 2-[4-(t-butyl)phenylamino]-6-(methylamino)-3-nitropyridine], CC(C)CNc1ccc([N+](=O)[O-])c(Nc2ccc(C(C)(C)C)cc2)n1 [Compound 32, 2-[4-(t-butyl)phenylamino]-6-(isobutylamino)-3-nitropyridine] is higher in “Cell viability (%) Calvarial cell” value: 90% for the first, 91% for the second.

Compared with CC(C)c1nccn1-c1ccc([N+](=O)[O-])c(Nc2ccc(C(C)(C)C)cc2)n1 [Compound 36, 2-[4-(t-butyl)phenylamino]-6-[(2-isopropyl)imidazol-1-yl]-3-nitropyridine], CC(C)c1nccn1-c1ccc([N+](=O)[O-])c(Nc2cccc(N)c2)n1 [Compound 75, 2-[3-(amino)phenylamino]-6-[(2-isopropyl)imidazol-1-yl]-3-nitropyridine] is lower in “Cell viability (%) Calvarial cell” value: 118% for the first, 103% for the second.

Going from CC(C)(C)c1ccc(Nc2nc(NCc3cccnc3)ccc2[N+](=O)[O-])cc1 [Compound 37, 2-[4-(t-butyl)phenylamino]-6-[(3-pyridyl)methylamino]-3-nitropyridine] to CC(C)(C)c1ccc(Nc2nc(NCc3ccncc3)ccc2[N+](=O)[O-])cc1 [Compound 38, 2-[4-(t-butyl)phenylamino]-6-[(4-pyridyl)methylamino]-3-nitropyridine], the “Cell viability (%) Calvarial cell” value falls from 104% to 96%.

Going from CC(C)CNc1ccc([N+](=O)[O-])c(Nc2ccc(C#N)cc2)n1 [Compound 46, 2-(4-cyanophenylamino)-6-(isobutylamino)-3-nitropyridine] to CC(C)CNc1ccc([N+](=O)[O-])c(Nc2cccc(N)c2)n1 [Compound 72, 2-[3-(amino)phenylamino]-6-(isobutylamino)-3-nitropyridine], the “Cell viability (%) Calvarial cell” value rises from 100% to 106%.

Compared with Nc1ccc(Nc2nc(N3CCC(N)CC3)ccc2[N+](=O)[O-])cc1 [Compound 65, 2-[4-(amino)phenylamino]-6-(4-aminopiperidino)-3-nitropyridine], Nc1cccc(Nc2nc(N3CCC(O)CC3)ccc2[N+](=O)[O-])c1 [Compound 74, 2-[3-(amino)phenylamino]-6-(4-hydroxypiperidino)-3-nitropyridine] is lower in “Cell viability (%) Calvarial cell” value: 102% for the first, 93% for the second.

Going from Nc1ccc(Nc2nc(NCCCn3ccnc3)ccc2[N+](=O)[O-])cc1 [Compound 67, 2-[4-(amino)phenylamino]-6-[(3-imidazol-1-yl)propylamino]-3-nitropyridine] to Nc1cccc(Nc2nc(NCCCn3ccnc3)ccc2[N+](=O)[O-])c1 [Compound 82, 2-[3-(amino)phenylamino]-6-[(3-imidazol-1-yl)propylamino]-3-nitropyridine], the “Cell viability (%) Calvarial cell” value falls from 111% to 106%.

First: CNc1ccc([N+](=O)[O-])c(Nc2cccc(N)c2)n1 [Compound 70, 2-[3-(amino)phenylamino]-6-(methylamino)-3-nitropyridine]
Second: CC(C)Nc1ccc([N+](=O)[O-])c(Nc2cccc(N)c2)n1 [Compound 71, 2-[3-(amino)phenylamino]-6-(isopropylamino)-3-nitropyridine]
The “Cell viability (%) Calvarial cell” value of the first is lower: 105% for the first, 114% for the second.

Compared with CC(C)(C)Nc1ccc([N+](=O)[O-])c(Nc2cccc(N)c2)n1 [Compound 73, 2-[3-(amino)phenylamino]-6-(t-butylamino)-3-nitropyridine], Cc1nccn1-c1ccc([N+](=O)[O-])c(Nc2cccc(N)c2)n1 [Compound 85, 2-[3-(amino)phenylamino]-6-[(2-methyl)imidazol-1-yl]-3-nitropyridine] is lower in “Cell viability (%) Calvarial cell” value: 102% for the first, 101% for the second.

Going from Nc1cccc(Nc2nc(N3CCNCC3)ccc2[N+](=O)[O-])c1 [Compound 76, 2-[3-(amino)phenylamino]-6-(piperazin-1-yl)-3-nitropyridine] to Nc1cccc(Nc2nc(N3CCOCC3)ccc2[N+](=O)[O-])c1 [Compound 78, 2-[3-(amino)phenylamino]-6-morpholino-3-nitropyridine], the “Cell viability (%) Calvarial cell” value falls from 102% to 93%.

Compared with CN1CCN(c2ccc([N+](=O)[O-])c(Nc3cccc(N)c3)n2)CC1 [Compound 77, 2-[3-(amino)phenylamino]-6-(4-methylpiperazin-1-yl)-3-nitropyridine], CC(C)c1nccn1-c1ccc([N+](=O)[O-])c(Nc2ccc(N3CCOCC3)cc2)n1 [Compound 114, 2-(4-morpholinophenylamino)-6-[(2-isopropyl)imidazol-1-yl]-3-nitropyridine] is lower in “Cell viability (%) Calvarial cell” value: 100% for the first, 92% for the second.

Compared with CC(C)CNc1ccc([N+](=O)[O-])c(Nc2ccc(-n3ccnc3)cc2)n1 [Compound 88, 2-[4-(imidazol-1-yl)phenylamino]-6-(isobutylamino)-3-nitropyridine], CC(=O)c1cccc(Nc2nc(NCC(C)C)ccc2[N+](=O)[O-])c1 [Compound 98, 2-(3-acetylphenylamino)-6-(isobutylamino)-3-nitropyridine] is lower in “Cell viability (%) Calvarial cell” value: 96% for the first, 92% for the second.

Compared with CC(C)Nc1ccc([N+](=O)[O-])c(Nc2ccc(N3CCOCC3)cc2)n1 [Compound 109, 2-(4-morpholinophenylamino)-6-(isopropylamino)-3-nitropyridine], CC(C)(C)Nc1ccc([N+](=O)[O-])c(Nc2ccc(N3CCOCC3)cc2)n1 [Compound 117, 2-(4-morpholinophenylamino)-6-(t-butylamino)-3-nitropyridine] is lower in “Cell viability (%) Calvarial cell” value: 101% for the first, 90% for the second.

First: O=[N+]([O-])c1ccc(NCc2ccncc2)nc1Nc1ccc(N2CCOCC2)cc1 [Compound 116, 2-(4-morpholinophenylamino)-6-[(4-pyridyl)methylamino]-3-nitropyridine]
Second: CNc1ccc([N+](=O)[O-])c(Nc2ccc(F)c(F)c2)n1 [Compound 122, 2-[(3,4-difluoro)phenylamino]-6-(methylamino)-3-nitropyridine]
The “Cell viability (%) Calvarial cell” value of the first is lower: 89% for the first, 121% for the second.

In the case of CC(C)Nc1ccc([N+](=O)[O-])c(Nc2ccc(F)c(F)c2)n1 [Compound 123, 2-[(3,4-difluoro)phenylamino]-6-(isopropylamino)-3-nitropyridine], the “Cell viability (%) Calvarial cell” value was 112%.
